Laboratory results reported in patent US20260297070A1, “CYCLIC [COMPOUND LEFT OUT] WRN INHIBITORS” (Nimbus Wadjet, Inc., priority 2023, published 2026).

These compounds were tested against T1, human Werner helicase (WRN-BV08, Uniprot Q14191, amino acids 517-1235 with L1074F point mutation) (Homo sapiens, UniProt Q14191, L1074F) (assay: WRN (BV08) ADP-Glo Assay). Details: 0.15 nM WRN, 5 μM ATP, 0.1 nM DNA duplex, 15 min preincubation, 60 min at 25° C., pH 7.5, 1% DMSO; read-out: ADP-Glo_hWRN_IC50.
T1 construct: Uniprot Q14191, amino acids 517-1235 with L1074F point mutation; TEV-cleavable 8×His (C, cleaved yes); made in house; host or cells: Sf9 insect cells (baculovirus)
T1 sequence (Q14191 with tags, fused parts or gaps L1074F limits assumed): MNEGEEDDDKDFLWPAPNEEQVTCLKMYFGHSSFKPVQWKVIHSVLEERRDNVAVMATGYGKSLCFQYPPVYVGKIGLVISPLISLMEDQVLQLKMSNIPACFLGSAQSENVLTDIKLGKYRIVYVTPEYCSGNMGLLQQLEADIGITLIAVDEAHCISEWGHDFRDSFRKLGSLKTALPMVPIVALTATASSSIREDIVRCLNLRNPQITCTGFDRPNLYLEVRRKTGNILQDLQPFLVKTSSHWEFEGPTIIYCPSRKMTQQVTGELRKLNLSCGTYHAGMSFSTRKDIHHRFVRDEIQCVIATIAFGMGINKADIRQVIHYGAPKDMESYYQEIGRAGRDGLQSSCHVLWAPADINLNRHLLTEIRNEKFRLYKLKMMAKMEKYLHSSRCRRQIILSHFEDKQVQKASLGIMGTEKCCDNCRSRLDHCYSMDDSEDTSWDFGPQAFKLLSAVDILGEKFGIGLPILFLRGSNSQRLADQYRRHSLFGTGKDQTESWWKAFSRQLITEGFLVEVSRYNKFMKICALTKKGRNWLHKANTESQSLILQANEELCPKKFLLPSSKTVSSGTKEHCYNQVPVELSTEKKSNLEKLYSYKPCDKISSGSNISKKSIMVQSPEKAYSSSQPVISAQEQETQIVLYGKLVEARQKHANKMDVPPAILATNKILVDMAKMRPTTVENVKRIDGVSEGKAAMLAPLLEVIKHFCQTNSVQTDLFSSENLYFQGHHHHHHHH
Assay type: biochemical
Outline: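 0.15 nM WRN (aa 517-1235, L1074F, Sf9-expressed, tag cleaved) preincubated 15 min at 25 °C with compound, then 5 μM ATP and 0.1 nM DNA duplex added for 60 min. Buffer: 20 mM Bicine pH 7.5, 1 mM MgCl2, 10 mM KCl, 1 mM TCEP; 1% DMSO. ADP-Glo luminescence; IC50 by 4-parameter fit.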
`O=C(Cc1ccc2ncccc2c1)N(Cc1ccncc1)C1C=CS(=O)(=O)C1` (centres unmarked) [I-514, N-(1,1-dioxo-2,3-dihydro-1lambda6-thiophen-3-yl)-N-[(pyridin-4-yl)methyl]-2-(quinolin-6-yl)acetamide] was tested, and the IC50 was greater than 50 µM. For `O=C(Cc1noc2ccccc12)N(Cc1ccncc1)C1C=CS(=O)(=O)C1` (centres unmarked) [I-516, 2-(1,2-benzoxazol-3-yl)-N-(1,1-dioxo-2,3-dihydro-1lambda6-thiophen-3-yl)-N-[(pyridin-4-yl)methyl]acetamide], the IC50 was greater than 50 µM. Compound `O=C(CCc1ccc(-n2cccc2)cc1)N(Cc1ccncc1)C1C=CS(=O)(=O)C1` (centres unmarked) [I-519, N-(1,1-dioxo-2,3-dihydro-1lambda6-thiophen-3-yl)-N-[(pyridin-4-yl)methyl]-3-[4-(1H-pyrrol-1-yl)phenyl]propanamide] has an IC50 greater than 50 µM. Compound `O=C(Cc1ccc(-n2cccc2)cc1)N(Cc1ccccc1Cl)C1C=CS(=O)(=O)C1` (centres unmarked) [I-521, N-[(2-chlorophenyl)methyl]-N-(1,1-dioxo-2,3-dihydro-1lambda6-thiophen-3-yl)-2-[4-(1H-pyrrol-1-yl)phenyl]acetamide] has an IC50 greater than 50 µM. `O=C(Cc1ccc(-n2cccc2)cc1)N(Cc1cc(F)cc(F)c1)C1C=CS(=O)(=O)C1` (centres unmarked) [I-522, N-[(3,5-difluorophenyl)methyl]-N-(1,1-dioxo-2,3-dihydro-1lambda6-thiophen-3-yl)-2-[4-(1H-pyrrol-1-yl)phenyl]acetamide] was tested, and the IC50 was greater than 50 µM. For `COc1ccccc1CN(C(=O)Cc1ccc(-n2cccc2)cc1)C1C=CS(=O)(=O)C1` (centres unmarked) [I-524, N-(1,1-dioxo-2,3-dihydro-1lambda6-thiophen-3-yl)-N-[(2-methoxyphenyl)methyl]-2-[4-(1H-pyrrol-1-yl)phenyl]acetamide], the IC50 was greater than 50 µM. For `O=C(Cc1ccc(-n2cccc2)cc1)N(C1C=CS(=O)(=O)C1)C(CO)c1ccccc1` (centres unmarked) [I-525, N-(1,1-dioxo-2,3-dihydro-1lambda6-thiophen-3-yl)-N-(2-hydroxy-1-phenylethyl)-2-[4-(1H-pyrrol-1-yl)phenyl]acetamide], the IC50 was greater than 50 µM. In the case of `O=C(C(c1ccc(Cl)cc1)c1ccc(Cl)cc1)N(Cc1ccncc1)C1C=CS(=O)(=O)C1` (centres unmarked) [I-526, 2,2-bis(4-chlorophenyl)-N-(1,1-dioxo-2,3-dihydro-1lambda6-thiophen-3-yl)-N-[(pyridin-4-yl)methyl]acetamide], the IC50 is reported as greater than 50 µM. For `CS(=O)(=O)c1ccc(CC(=O)N(Cc2ccncc2)C2C=CS(=O)(=O)C2)cc1` (centres unmarked) [I-527, N-(1,1-dioxo-2,3-dihydro-1lambda6-thiophen-3-yl)-2-(4-methanesulfonylphenyl)-N-[(pyridin-4-yl)methyl]acetamide], the IC50 was greater than 50 µM. `O=C(Cc1cccc(-n2cccc2)c1)N(Cc1ccncc1)C1C=CS(=O)(=O)C1` (centres unmarked) [I-528, N-(1,1-dioxo-2,3-dihydro-1lambda6-thiophen-3-yl)-N-[(pyridin-4-yl)methyl]-2-[3-(1H-pyrrol-1-yl)phenyl]acetamide] showed an IC50 greater than 50 µM. For `O=C(/C=C/c1ccc(C(F)(F)F)cc1)N(Cc1ccncc1)C1C=CS(=O)(=O)C1` (centres unmarked) [I-529, (2E)-N-(1,1-dioxo-2,3-dihydro-1lambda6-thiophen-3-yl)-N-[(pyridin-4-yl)methyl]-3-[4-(trifluoromethyl)phenyl]prop-2-enamide], the IC50 was greater than 50 µM. With `O=C(/C=C/c1ccccc1)N(Cc1ccncc1)C1C=CS(=O)(=O)C1` (centres unmarked) [I-530, (2E)-N-(1,1-dioxo-2,3-dihydro-1lambda6-thiophen-3-yl)-3-phenyl-N-[(pyridin-4-yl)methyl]prop-2-enamide] the IC50 was greater than 50 µM. With `O=C(Cc1ccc(-n2cnnc2)cc1)N(Cc1ccncc1)C1C=CS(=O)(=O)C1` (centres unmarked) [I-532, N-(1,1-dioxo-2,3-dihydro-1lambda6-thiophen-3-yl)-N-[(pyridin-4-yl)methyl]-2-[4-(4H-1,2,4-triazol-4-yl)phenyl]acetamide] the IC50 was greater than 50 µM. Compound `O=C(Cc1ccc(-n2cccc2)cc1)N(C1C=CS(=O)(=O)C1)C1CCC1` (centres unmarked) [I-533, N-cyclobutyl-N-(1,1-dioxo-2,3-dihydro-1lambda6-thiophen-3-yl)-2-[4-(1H-pyrrol-1-yl)phenyl]acetamide] has an IC50 greater than 50 µM. Work on `O=C(Cc1ccc(-n2cccc2)cc1)N(Cc1ccccc1Br)C1C=CS(=O)(=O)C1` (centres unmarked) [I-534, N-[(2-bromophenyl)methyl]-N-(1,1-dioxo-2,3-dihydro-1lambda6-thiophen-3-yl)-2-[4-(1H-pyrrol-1-yl)phenyl]acetamide] yielded an IC50 greater than 50 µM. Compound `CC(C)(C)OC(=O)NC(C(=O)N(Cc1ccccc1)C1C=CS(=O)(=O)C1)c1ccc(-n2cccc2)cc1` (centres unmarked) [I-535, tert-butyl N-{[benzyl(1,1-dioxo-2,3-dihydro-1lambda6-thiophen-3-yl)carbamoyl][4-(1H-pyrrol-1-yl)phenyl]methyl}carbamate] has an IC50 greater than 50 µM. For `O=C(Cc1cccc(C(F)(F)F)c1)N(Cc1ccncc1)C1C=CS(=O)(=O)C1` (centres unmarked) [I-536, N-(1,1-dioxo-2,3-dihydro-1lambda6-thiophen-3-yl)-N-[(pyridin-4-yl)methyl]-2-[3-(trifluoromethyl)phenyl]acetamide], the IC50 was greater than 50 µM. For `O=C(c1cnn(Cc2ccccc2)c1)N(Cc1ccncc1)C1C=CS(=O)(=O)C1` (centres unmarked) [I-538, 1-benzyl-N-(1,1-dioxo-2,3-dihydro-1lambda6-thiophen-3-yl)-N-[(pyridin-4-yl)methyl]-1H-pyrazole-4-carboxamide], the IC50 was greater than 50 µM. For `O=C(C1CCCN(c2ccccc2)C1)N(Cc1ccncc1)C1C=CS(=O)(=O)C1` (centres unmarked) [I-539, N-(1,1-dioxo-2,3-dihydro-1lambda6-thiophen-3-yl)-1-phenyl-N-[(pyridin-4-yl)methyl]piperidine-3-carboxamide], the IC50 was greater than 50 µM. `O=C(Cc1ccc(-n2cccc2)cc1)N(CC12CC(C1)C2)C1C=CS(=O)(=O)C1` (centres unmarked) [I-540, N-({bicyclo[1.1.1]pentan-1-yl}methyl)-N-(1,1-dioxo-2,3-dihydro-1lambda6-thiophen-3-yl)-2-[4-(1H-pyrrol-1-yl)phenyl]acetamide] was tested, and the IC50 was greater than 50 µM. `COc1ccc2c(CC(=O)N(Cc3ccncc3)C3C=CS(=O)(=O)C3)c[nH]c2c1` (centres unmarked) [I-541, N-(1,1-dioxo-2,3-dihydro-1lambda6-thiophen-3-yl)-2-(6-methoxy-1H-indol-3-yl)-N-[(pyridin-4-yl)methyl]acetamide] was tested, and the IC50 was greater than 50 µM. `O=C1Cc2ccc(CC(=O)N(Cc3ccncc3)C3C=CS(=O)(=O)C3)cc2N1` (centres unmarked) [I-542, N-(1,1-dioxo-2,3-dihydro-1lambda6-thiophen-3-yl)-2-(2-oxo-2,3-dihydro-1H-indol-6-yl)-N-[(pyridin-4-yl)methyl]acetamide] was tested, and the IC50 was greater than 50 µM. Work on `O=C(Cc1coc(-c2ccc(F)cc2)n1)N(Cc1ccncc1)C1C=CS(=O)(=O)C1` (centres unmarked) [I-543, N-(1,1-dioxo-2,3-dihydro-1lambda6-thiophen-3-yl)-2-[2-(4-fluorophenyl)-1,3-oxazol-4-yl]-N-[(pyridin-4-yl)methyl]acetamide] yielded an IC50 greater than 50 µM. With `O=C(Cc1cnn(Cc2ccccc2)c1)N(Cc1ccncc1)C1C=CS(=O)(=O)C1` (centres unmarked) [I-544, 2-(1-benzyl-1H-pyrazol-4-yl)-N-(1,1-dioxo-2,3-dihydro-1lambda6-thiophen-3-yl)-N-[(pyridin-4-yl)methyl]acetamide] the IC50 was greater than 50 µM. Work on `O=C(Cc1ccc(-n2cccc2)cc1)N(CC12CCC(CC1)CC2)C1C=CS(=O)(=O)C1` (centres unmarked) [I-545, N-({bicyclo[2.2.2]octan-1-yl}methyl)-N-(1,1-dioxo-2,3-dihydro-1lambda6-thiophen-3-yl)-2-[4-(1H-pyrrol-1-yl)phenyl]acetamide] yielded an IC50 greater than 50 µM. `N#Cc1ccc2c(CC(=O)N(Cc3ccncc3)C3C=CS(=O)(=O)C3)c[nH]c2c1` (centres unmarked) [I-546, 2-(6-cyano-1H-indol-3-yl)-N-(1,1-dioxo-2,3-dihydro-1lambda6-thiophen-3-yl)-N-[(pyridin-4-yl)methyl]acetamide] gave an IC50 greater than 50 µM. In the case of `O=C(Cc1csc(-c2ccccc2)n1)N(Cc1ccncc1)C1C=CS(=O)(=O)C1` (centres unmarked) [I-547, N-(1,1-dioxo-2,3-dihydro-1lambda6-thiophen-3-yl)-2-(2-phenyl-1,3-thiazol-4-yl)-N-[(pyridin-4-yl)methyl]acetamide], the IC50 is reported as greater than 50 µM. With `CS(=O)(=O)N1CCN(C(C(=O)N(Cc2ccncc2)C2C=CS(=O)(=O)C2)c2ccc(-c3ccc(F)cc3)cc2)CC1` (centres unmarked) [I-548, N-(1,1-dioxo-2,3-dihydro-1lambda6-thiophen-3-yl)-2-{4′-fluoro-[1,1′-biphenyl]-4-yl}-2-(4-methanesulfonylpiperazin-1-yl)-N-[(pyridin-4-yl)methyl]acetamide] the IC50 was greater than 50 µM. With `O=C(Cc1ccc(-n2cccc2)cc1)N(C1C=CS(=O)(=O)C1)[C@H]1CCOc2ccccc21` (stereo partly drawn) [I-550, N-[(4S)-3,4-dihydro-2H-1-benzopyran-4-yl]-N-(1,1-dioxo-2,3-dihydro-1lambda6-thiophen-3-yl)-2-[4-(1H-pyrrol-1-yl)phenyl]acetamide] the IC50 was greater than 50 µM. Work on `CN(C)C(=O)CC(C(=O)N(Cc1ccncc1)C1C=CS(=O)(=O)C1)c1ccc(-n2cccc2)cc1` (centres unmarked) [I-551, N-(1,1-dioxo-2,3-dihydro-1lambda6-thiophen-3-yl)-N′,N′-dimethyl-N-[(pyridin-4-yl)methyl]-2-[4-(1H-pyrrol-1-yl)phenyl]butanediamide] yielded an IC50 greater than 50 µM. `O=C(CC1CCN(c2ccccc2)CC1)N(Cc1ccncc1)C1C=CS(=O)(=O)C1` (centres unmarked) [I-552, N-(1,1-dioxo-2,3-dihydro-1lambda6-thiophen-3-yl)-2-(1-phenylpiperidin-4-yl)-N-[(pyridin-4-yl)methyl]acetamide] was tested, and the IC50 was greater than 50 µM. For `O=C(c1ccncc1)N(CCc1ccc(-n2cccc2)cc1)C1C=CS(=O)(=O)C1` (centres unmarked) [I-553, N-(1,1-dioxo-2,3-dihydro-1lambda6-thiophen-3-yl)-N-{2-[4-(1H-pyrrol-1-yl)phenyl]ethyl}pyridine-4-carboxamide], the IC50 was greater than 50 µM.
